Source: US20120165319A1, “INHIBITORS OF INTERLEUKIN-1 BETA CONVERTING ENZYME” (VERTEX PHARMACEUTICALS INCORPORATED, priority 1995, published 2012)

Molecular target: T1, ICE (Homo sapiens, UniProt P29466)
T1 sequence (P29466 120-297 limits assumed): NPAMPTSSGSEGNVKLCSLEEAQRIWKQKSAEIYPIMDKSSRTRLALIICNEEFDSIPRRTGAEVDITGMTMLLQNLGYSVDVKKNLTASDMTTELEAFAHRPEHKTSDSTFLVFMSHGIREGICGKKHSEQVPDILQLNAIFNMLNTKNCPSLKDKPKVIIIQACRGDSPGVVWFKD
T1 sequence (P29466 317-404 limits assumed): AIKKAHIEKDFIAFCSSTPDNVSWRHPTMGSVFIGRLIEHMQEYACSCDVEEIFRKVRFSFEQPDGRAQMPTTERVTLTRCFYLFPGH
Test: Enzyme assay with UV-visible substrate (visible ICE assay, Succinyl-Tyr-Val-Ala-Asp-pNitroanilide)
Format: biochemical
Conditions: Table 5
Method: 1. Enzyme Assay with Uv-Visible Substrate
This assay is run using an Succinyl-Tyr-Val-Ala-Asp-pNitroanilide substrate. Synthesis of analogous substrates is described by L. A. Reiter (Int. J. Peptide Protein Res. 12, 87-96 (1994)). The assay mixture contains:
The visible ICE assay is run in a 96-well microtiter plate. Buffer, ICE and DMSO (if inhibitor is present) are added to the wells in the order listed. The components are left to incubate at room temperature for 15 minutes starting at the time that all components are present in all wells. The microtiter plate reader is set to incubate at 37° C. After the 15 minute incubation, substrate is added directly to the wells and the reaction is monitored by following the release of the chromophore (pNA) at 405-603 nm at 37° C. for 20 minutes. A linear fit of the data is performed and the rate is calculated in mOD/min. DMSO is only present during experiments involving inhibitors, buffer is used to make up the volume to 100 μl in the other experiments.
For determination of enzyme inhibition constants (Ki) or the mode of inhibition (competitive, uncompetitive or noncompetitive), the rate data determined in the enzyme assays at varying inhibitor concentrations are computer-fit to standard enzyme kinetic equations (see I. H. Segel, Enzyme Kinetics, Wiley-Interscience, 1975).

SMILES | Ki [µM]
O=C[C@H](CC(=O)O)NC(=O)CN1C(=O)[C@@H](NC(=O)c2ccccc2)CN(C(=O)OC2CCOC2)c2ccccc21 (stereo partly shown) [Compound 605q] | 1
Cc1cccc(CC(=O)N2C[C@H](NC(=O)c3ccccc3)C(=O)N(CC(=O)N[C@H](C=O)CC(=O)O)c3ccccc32)c1 [Compound 605t, (3S)-3-[(3S)-2-Oxo-3-benzoylamino-5-(3-methylphenylacetyl)-2,3,4,5-tetrahydro-1H-1,5-benzodiazepin-1-acetylamino]-4-oxo-butyric acid] | 0.033
CC(=O)N1C[C@H](NC(=O)c2ccc3ccccc3n2)C(=O)N(CC(=O)N[C@H](C=O)CC(=O)O)c2ccccc21 [Compound 619] | 0.3
CC(=O)N1C[C@H](NC(=O)c2ccc3cc(OC(=O)c4ccc5cc(O)ccc5c4)ccc3c2)C(=O)N(CC(=O)N[C@H](C=O)CC(=O)O)c2ccccc21 [Compound 623] | 0.009
CC(=O)N1C[C@H](NC(=O)c2sc(C)nc2C)C(=O)N(CC(=O)N[C@H](C=O)CC(=O)O)c2ccccc21 [Compound 625] | 0.105
CC(=O)N1C[C@H](NC(=O)c2cccc(O)c2C)C(=O)N(CC(=O)N[C@H](C=O)CC(=O)O)c2ccccc21 [Compound 626] | 0.26
CC(=O)N1C[C@H](NS(=O)(=O)c2ccccc2)C(=O)N(CC(=O)N[C@H](C=O)CC(=O)O)c2ccccc21 [Compound 629] | 0.23
CC(=O)N1C[C@H](NC(=O)Cc2ccccc2)C(=O)N(CC(=O)N[C@H](C=O)CC(=O)O)c2ccccc21 [Compound 630] | 0.27
CC(=O)N1C[C@H](NS(=O)(=O)Cc2ccccc2)C(=O)N(CC(=O)N[C@H](C=O)CC(=O)O)c2ccccc21 [Compound 631] | 0.805
CC(=O)N1C[C@H](NC(=O)/C=C/c2ccccc2)C(=O)N(CC(=O)N[C@H](C=O)CC(=O)O)c2ccccc21 [Compound 632] | 0.148

More lines, now with the values ahead:

Ki [µM] | SMILES
0.05 | C[S+](CC(=O)[C@H](CC(=O)O)NC(=O)[C@@H]1CCCN2C(=O)CC[C@H](NC(=O)c3ccccc3)C(=O)N12)Cc1ccccc1Cl (stereo partly shown) [Compound 281]
0.28 | CN(C)S(=O)(=O)N[C@H]1CCC(=O)N2CCC[C@@H](C(=O)N[C@H](C=O)CC(=O)O)N2C1=O [Compound 428]
7 | N[C@H]1CCC(=O)N2CCC[C@@H](C(=O)N[C@H](C=O)CC(=O)O)N2C1=O [Compound 429]
0.04 | O=C[C@H](CC(=O)O)NC(=O)[C@@H]1CCCN2C(=O)CC[C@H](NC(=O)c3cccc(F)c3)C(=O)N12 [Compound 462]
0.14 | O=C[C@H](CC(=O)O)NC(=O)[C@@H]1CCCN2C(=O)CC[C@H](NC(=O)/C=C/c3ccncc3)C(=O)N12 [Compound 472]
0.085 | CC(=O)c1ccc(C(=O)N[C@H]2CCC(=O)N3CCC[C@@H](C(=O)N[C@H](C=O)CC(=O)O)N3C2=O)cc1 [Compound 474]
0.06 | O=C[C@H](CC(=O)O)NC(=O)[C@@H]1CCCN2C(=O)CC[C@H](NC(=O)c3ccc(O)c(CN4CCOCC4)c3)C(=O)N12 [Compound 477]
0.38 | NS(=O)(=O)c1ccc(C(=O)N[C@H]2CCC(=O)N3CCC[C@@H](C(=O)N[C@H](C=O)CC(=O)O)N3C2=O)cc1 [Compound 478]
0.043 | O=C[C@H](CC(=O)O)NC(=O)[C@@H]1CCCN2C(=O)CC[C@H](NC(=O)Cc3ccccc3)C(=O)N12 [Compound 495]
0.3 | CC(=O)N1C[C@H](NC(=O)c2ccsc2)C(=O)N(CC(=O)N[C@H](C=O)CC(=O)O)c2ccccc21 [Compound 624]
1.4 | CC(=O)N1C[C@H](NC(=O)O[C@H]2CCOC2)C(=O)N(CC(=O)N[C@H](C=O)CC(=O)O)c2ccccc21 [Compound 634]

Same assay, conditions: Table 17

SMILES | Ki [µM]
CC(=O)NCC(=O)N1C[C@H](NC(=O)c2cccc3ccccc23)C(=O)N(CC(=O)N[C@H](C=O)CC(=O)O)c2ccccc21 [Compound 645, (3S)-3-[(3S)-2-Oxo-3-(1-naphthoyl)amino-5-(2-acetamido)acetyl-2,3,4,5-tetrahydro-1H-1,5-benzodiazepine-1-acetylamino]-4-oxo-butyric acid] | 0.15
CC(=O)N1C[C@H](NC(=O)/C=C/c2ccc(Cl)c(Cl)c2)C(=O)N(CC(=O)N[C@H](C=O)CC(=O)O)c2ccccc21 [Compound 700] | 0.275
CC(=O)N1C[C@H](NC(=O)C(=O)Nc2ccc(Cl)cc2)C(=O)N(CC(=O)N[C@H](C=O)CC(=O)O)c2ccccc21 [Compound 710] | 0.11

Continued, values first:

Ki [µM] | SMILES
3 | CO/N=C/[C@H](CC(=O)O)NC(=O)[C@@H]1CCCN2C(=O)CC[C@H](NC(=O)c3ccc(OC)cc3)C(=O)N12 [Compound 308c, [3S(1S,9S)3-(9-(4-Methoxybenzoyl)amino-6,10-dioxo-1,2,3,4,7,8,9,10-octahydro-6H-pyridazino[1,2-a][1,2]diazepine-1-carboxamido)-amino]-4-oxobutanoic acid, O-methyl oxime]
3 | COc1ccc(C(=O)N[C@H]2CCC(=O)N3CCC[C@@H](C(=O)N[C@H](/C=N/OCc4ccccc4)CC(=O)O)N3C2=O)cc1 [Compound 308d, [3S(1S,9S)3-(9-(4-Methoxybenzoyl)amino-6,10-dioxo-1,2,3,4,7,8,9,10-octahydro-6H-pyridazino[1,2-a][1,2]diazepine-1-carboxamido)-amino]-4-oxobutanoic acid, O-benzyl oxime]
0.09 | CC(=O)N1C[C@H](NC(=O)C(=O)c2cccs2)C(=O)N(CC(=O)N[C@H](C=O)CC(=O)O)c2ccccc21 [Compound 701]
0.18 | CC(=O)N1C[C@H](NC(=O)CCc2ccc3c(c2)OCO3)C(=O)N(CC(=O)N[C@H](C=O)CC(=O)O)c2ccccc21 [Compound 707]
0.14 | CC(=O)N1C[C@H](NC(=O)/C=C/c2ccc3c(c2)OCO3)C(=O)N(CC(=O)N[C@H](C=O)CC(=O)O)c2ccccc21 [Compound 708]
0.175 | CC(=O)N1C[C@H](NC(=O)C(=O)c2ccco2)C(=O)N(CC(=O)N[C@H](C=O)CC(=O)O)c2ccccc21 [Compound 711]
0.065 | O=C[C@H](CC(=O)O)NC(=O)[C@@H]1CCCN2C(=O)CCN(NC(=O)C(=O)c3cccs3)C(=O)N12 [Compound 1107]
0.08 | O=C[C@H](CC(=O)O)NC(=O)[C@@H]1CCCN2C(=O)CCN(NC(=O)C(=O)c3ccc4c(c3)OCO4)C(=O)N12 [Compound 1109]
0.045 | COc1ccc(C(=O)C(=O)NN2CCC(=O)N3CCC[C@@H](C(=O)N[C@H](C=O)CC(=O)O)N3C2=O)cc1 [Compound 1110]
0.29 | O=C[C@H](CC(=O)O)NC(=O)[C@@H]1CCCN2C(=O)CCN(NC(=O)CCc3ccc(Cl)cc3)C(=O)N12 [Compound 1113]
0.125 | O=C[C@H](CC(=O)O)NC(=O)[C@@H]1CCCN2C(=O)CCN(NC(=O)CCc3ccc4c(c3)OCO4)C(=O)N12 [Compound 1114]

Same assay, conditions: Table 27

SMILES | Ki [µM]
COCC(=O)N1C[C@H](NC(=O)c2cc(C)c(O)c(C)c2)C(=O)N(CC(=O)N[C@H](/C=N/OCc2c(Cl)cccc2Cl)CC(=O)O)c2ccccc21 [Compound 688c, (3S)-3-[(3S)-2-Oxo-3-(3,5-dimethyl-4-hydroxybenzoyl)amino-5-methoxyacetyl-2,3,4,5-tetrahydro-1H-1,5-benzodiazepine-1-acetylamino]-4-oxobutyric acid, O-2,6-dichlorobenzyl oxime] | 0.2
O=C[C@H](CC(=O)O)NC(=O)CN1C(=O)[C@@H](NC(=O)c2nccc3ccccc23)CN(C(=O)CO)c2cc(F)ccc21 [Compound 696-1, (3S)-3-[(3S)-2-oxo-3-isoquinolin-1-oylamino-5-hydroxyacetyl-2,3,4,5-tetrahydro-7-fluoro-1H-1,5-benzodiazepine-1-acetylamino]-4-oxobutyric acid] | 0.0005
O=C[C@H](CC(=O)O)NC(=O)CN1C(=O)[C@@H](NC(=O)c2nccc3ccccc23)CN(C(=O)CO)c2cc(Cl)ccc21 [Compound 696-2, (3S)-3-[(3S)-2-Oxo-3-isoquinolin-1-oylamino-5-hydroxyacetyl-2,3,4,5-tetrahydro-7-chloro-1H-1,5-benzodiazepine-1-acetylamino]-4-oxobutyric acid] | 0.0005
COCC(=O)N1C[C@H](NC(=O)c2nccc3ccccc23)C(=O)N(CC(=O)N[C@H](C=O)CC(=O)O)c2ccccc21 [Compound 699, (3S)-3-[(3S)-2-Oxo-3-isoquinolin-1-oylamino-5-methoxyacetyl-2,3,4,5-tetrahydro-1H-1,5-benzodiazepine-1-acetylamino]-4-oxobutyric acid] | 0.0011
COC(=O)N1C[C@H](NC(=O)c2ccc(O)c(Cl)c2)C(=O)N(CC(=O)N[C@H](C=O)CC(=O)O)c2ccccc21 [Compound 720] | 0.0027
CC(=O)O[C@@H](C)C(=O)N1C[C@H](NC(=O)c2cc(C)c(O)c(C)c2)C(=O)N(CC(=O)N[C@H](C=O)CC(=O)O)c2ccccc21 [Compound 726] | 0.3
CC(=O)OC(C)(C)C(=O)N1C[C@H](NC(=O)c2cc(C)c(O)c(C)c2)C(=O)N(CC(=O)N[C@H](C=O)CC(=O)O)c2ccccc21 [Compound 728] | 0.3
CC(=O)N[C@@H](CCC(=O)O)C(=O)N[C@H]1CN(C(=O)CO)c2ccccc2N(CC(=O)N[C@H](C=O)CC(=O)O)C1=O [Compound 731] | 0.15
